Source: PMC9098913, “In vitro reconstitution of Escherichia coli divisome activation” (Nature Communications, 2022)

Tested on: FtsA self-interaction
Experiment: FRET self-interaction of His-tagged FtsAs (and His-SUMO control) on Tris-NTA membranes
Assay type: binding, E. coli
Procedure: To study colocalization of His-tagged variants of FtsA, 0.5–1 µM of Cy5 labelled His-tagged FtsAs were added to the chamber, incubated for 20 min and washed 6x with reaction buffer. […] To control the density of membrane-bound FtsA, SUVs without and with Tris-NTA lipids were mixed to obtain the respective Tris-NTA concentrations. To perform FRET/FRAP experiments, equimolar concentrations of Cy3 and Cy5 labelled His-tagged FtsAs (total 0.5–1 µM) or His-SUMO-Cys were added to a chamber and treated as above. […] FRAP experiments were performed as described before.
Bleaching the acceptor dye leads to an increase in the donor intensity, which can be used to quantify the Foerster Resonance energy transfer (FRET)[48]. FRET efficiency was quantified with E%=Ipost/Ipost+Ipre⋅100 , where Ipost is the intensity of the […] and Ipre is the […]. […] To extract the contribution of both processes, we adjusted a routine recently published by Gerganova et al.[33]. In short, the code provides the contribution of both modes of recovery by analysing the shape of the fluorescence recovery profile. […] Contribution of diffusion leads to a change of the slope of the outer borders of the bleached region (S4h right). Thus, by measuring the change of the slope of the border recovery, diffusion and simple on/off binding can be distinguished. We developed “FRAPdiff”, a graphical user interface, which uses the original fit routine by David Rutkowski. It can be used directly on.tiff movies with annotated bleach regions as ImageJ ROIs. In addition, we added optional bleach correction, user selectable projection axis (x or y), and optional mirroring of the recovery profiles, if bleaching was not symmetric. The original fit routine for estimating the recovery and diffusion dynamics can be found at https://github.com/davidmrutkowski/1DReflectingDiffusion. FRAPdiff is available at 10.5281/zenodo.6400639[49] under the GPLv3 open-source license.

Substance “FtsA-His6: FtsA WT (1-405) with amphipathic helix replaced by C-terminal His-tag” has an FRET efficiency (0.1% Tris NTA, + FtsZ; Exp1) of 3.78%, an FRET efficiency (0.1% Tris NTA, + FtsZ; Exp2) of 0.99% and an FRET efficiency (0.1% Tris NTA, + FtsZ; mean, n = 2) of 2.39%. For the same substance, the FRET efficiency (0.1% Tris NTA, without FtsZ; Exp1) was 3.14%, the FRET efficiency (0.1% Tris NTA, without FtsZ; Exp2) was 0.59% and the FRET efficiency (0.1% Tris NTA, without FtsZ; mean, n = 2) was 1.87%. It also gave an FRET efficiency (0.4% Tris NTA; + FtsZ; Exp1) of 6.34%, an FRET efficiency (0.4% Tris NTA; + FtsZ; Exp2) of 13.91% and an FRET efficiency (0.4% Tris NTA; + FtsZ; Mean, n = 2) of 10.12%. The FRET efficiency (0.4% Tris NTA; without FtsZ; Exp1) was 8.25%, the FRET efficiency (0.4% Tris NTA; without FtsZ; Exp2) was 10.75% and the FRET efficiency (0.4% Tris NTA; without FtsZ; Mean, n = 2) was 9.50%. The FRET efficiency (0.6% Tris NTA; + FtsZ; Exp1) was 12.72%, the FRET efficiency (0.6% Tris NTA; + FtsZ; Exp2) was 16.89% and the FRET efficiency (0.6% Tris NTA; + FtsZ; Exp3) was 21.31%. For the same substance, the FRET efficiency (0.6% Tris NTA; + FtsZ; Mean, n = 3) was 16.97%, the FRET efficiency (0.6% Tris NTA; without FtsZ; Exp1) was 13.98% and the FRET efficiency (0.6% Tris NTA; without FtsZ; Exp2) was 15.14%. For the same substance, the FRET efficiency (0.6% Tris NTA; without FtsZ; Exp3) was 19.21%, the FRET efficiency (0.6% Tris NTA; without FtsZ; Mean, n = 3 (His6-SUMO n = 2)) was 16.11% and the FRET efficiency (0.8% Tris NTA; + FtsZ; Exp1) was 13.61%. The FRET efficiency (0.8% Tris NTA; + FtsZ; Exp2) was 19.13%, the FRET efficiency (0.8% Tris NTA; + FtsZ; Exp3) was 15.44% and the FRET efficiency (0.8% Tris NTA; + FtsZ; Mean, n = 3) was 16.06%. For the same substance, the FRET efficiency (0.8% Tris NTA; without FtsZ; Exp1) was 14.15%, the FRET efficiency (0.8% Tris NTA; without FtsZ; Exp2) was 18.41% and the FRET efficiency (0.8% Tris NTA; without FtsZ; Exp3) was 13.88%. It also gave an FRET efficiency (0.8% Tris NTA; without FtsZ; Mean, n = 3 (His6-SUMO n = 2)) of 15.48%, an FRET efficiency (1% Tris NTA; + FtsZ; Exp1) of 18.34% and an FRET efficiency (1% Tris NTA; + FtsZ; Exp2) of 21.19%. For the same substance, the FRET efficiency (1% Tris NTA; + FtsZ; Exp3) was 19.01%, the FRET efficiency (1% Tris NTA; + FtsZ; Mean, n = 3 (R286W-His6 n = 4)) was 19.51% and the FRET efficiency (1% Tris NTA; without FtsZ; Exp1) was 16.93%. For the same substance, the FRET efficiency (1% Tris NTA; without FtsZ; Exp2) was 19.88%, the FRET efficiency (1% Tris NTA; without FtsZ; Exp3) was 16.24% and the FRET efficiency (1% Tris NTA; without FtsZ; Mean, n = 3 (R286W-His6 n = 4)) was 17.68%. For the same substance, the FRET efficiency (2% Tris NTA; + FtsZ; Exp1) was 32.05%, the FRET efficiency (2% Tris NTA; + FtsZ; Exp2) was 31.95% and the FRET efficiency (2% Tris NTA; + FtsZ; Mean, n = 2) was 32.00%. For the same substance, the FRET efficiency (2% Tris NTA; without FtsZ; Exp1) was 32.49%, the FRET efficiency (2% Tris NTA; without FtsZ; Exp2) was 23.34% and the FRET efficiency (2% Tris NTA; without FtsZ; Mean, n = 2) was 27.92%. For the same substance, the FRET efficiency (Tris 0.40 %, + FtsZ; mean) was 10.12%, the FRET efficiency (Tris 0.40 %, without FtsZ; mean) was 9.50% and the FRET efficiency (Tris 0.60 %, + FtsZ; mean) was 16.97%. The FRET efficiency (Tris 0.60 %, without FtsZ; mean) was 16.11%, the FRET efficiency (Tris 0.80 %, + FtsZ; mean) was 16.06% and the FRET efficiency (Tris 0.80 %, without FtsZ; mean) was 15.48%. For the same substance, the FRET efficiency (Tris 1.00 %, + FtsZ; mean) was 19.51%, the FRET efficiency (Tris 1.00 %, without FtsZ; mean) was 17.68% and the FRET efficiency (Tris 2.00 %, + FtsZ; mean) was 32.00%. The FRET efficiency (Tris 2.00 %, without FtsZ; mean) was 27.92%, the FRET efficiency (Tris […], + FtsZ; mean) was 28.93% and the FRET efficiency (Tris […], without FtsZ; mean) was 25.95%. It also gave an FRET efficiency ([…] Tris NTA, + FtsZ; Exp1) of 2.38%, an FRET efficiency ([…] Tris NTA, + FtsZ; Exp2) of 10.40% and an FRET efficiency ([…] Tris NTA, + FtsZ; mean, n = 2) of 6.39%. For the same substance, the FRET efficiency ([…] Tris NTA, without FtsZ; Exp1) was 3.80%, the FRET efficiency ([…] Tris NTA, without FtsZ; Exp2) was 9.45% and the FRET efficiency ([…] Tris NTA, without FtsZ; mean, n = 2; listed as FtsA WT-His6) was 6.62%. It also gave an FRET efficiency ([…] Tris NTA, without FtsZ; mean, n = 2; listed as WT-His6) of 6.63%, an FRET efficiency ([…] Tris NTA; + FtsZ; Exp1) of 34.73% and an FRET efficiency ([…] Tris NTA; + FtsZ; Exp2) of 27.23%. It also gave an FRET efficiency ([…] Tris NTA; + FtsZ; Exp3) of 24.81%, an FRET efficiency ([…] Tris NTA; + FtsZ; Mean, n = 3) of 28.93% and an FRET efficiency ([…] Tris NTA; without FtsZ; Exp1) of 28.26%. The FRET efficiency ([…] Tris NTA; without FtsZ; Exp2) was 26.94%, the FRET efficiency ([…] Tris NTA; without FtsZ; Exp3) was 22.66% and the FRET efficiency ([…] Tris NTA; without FtsZ; Mean, n = 3) was 25.95%. The FRET efficiency ([…] Tris-NTA; + N (FtsNcyto); mean) was 26.95%, the FRET efficiency ([…] Tris-NTA; + N/Z (FtsNcyto and FtsZ); mean) was 24.12% and the FRET efficiency ([…] Tris-NTA; + N/Z; Exp. 1) was 22.20%. For the same substance, the FRET efficiency ([…] Tris-NTA; + N/Z; Exp. 2) was 29.86%, the FRET efficiency ([…] Tris-NTA; + N/Z; Exp. 3) was 20.31% and the FRET efficiency ([…] Tris-NTA; + N; Exp. 1) was 28.94%. For the same substance, the FRET efficiency ([…] Tris-NTA; + N; Exp. 2) was 24.96%, the FRET efficiency ([…] Tris-NTA; + N; Exp. 3) was 26.96% and the FRET efficiency ([…] Tris-NTA; + Z (FtsZ); mean) was 27.70%. The FRET efficiency ([…] Tris-NTA; + Z; Exp. 1) was 34.73%, the FRET efficiency ([…] Tris-NTA; + Z; Exp. 2) was 27.23% and the FRET efficiency ([…] Tris-NTA; + Z; Exp. 3) was 24.81%. For the same substance, the FRET efficiency ([…] Tris-NTA; + Z; Exp. 4) was 24.02%, the FRET efficiency ([…] Tris-NTA; alone; Exp. 1) was 28.26% and the FRET efficiency ([…] Tris-NTA; alone; Exp. 2) was 26.94%. For the same substance, the FRET efficiency ([…] Tris-NTA; alone; Exp. 3) was 22.66%, the FRET efficiency ([…] Tris-NTA; alone; Exp. 4) was 20.84% and the FRET efficiency ([…] Tris-NTA; alone; mean) was 24.68%.
